# In US20160367623A1, “AGONISTS OF GUANYLATE CYCLASE USEFUL FOR THE TREATMENT OF GASTROINTESTINAL DISORDERS, INFLAMMATION, CANCER AND OTHER DISORDERS” (priority 2015, published 2016):
# Bridge positions count the residues as written; N and C are the ends. Ends that are not written are not given here.
# System: patients with chronic idiopathic constipation (CIC)
# Assay: Second phase 3 CIC trial: change from baseline in CSBMs/week
# Format: in vivo, human
# [1] = Post-Treatment Week 13, 3 mg, ITT Population, MRA
# [2] = Post-Treatment Week 13, 3 mg, ITT Population-Excluding Duplicate Patients, MRA
# [3] = Post-Treatment Week 13, 6 mg, ITT Population, MRA
# [4] = Post-Treatment Week 13, 6 mg, ITT Population-Excluding Duplicate Patients, MRA
# [5] = Post-Treatment Week 14, 3 mg, ITT Population, MRA
# [6] = Post-Treatment Week 14, 3 mg, ITT Population-Excluding Duplicate Patients, MRA
# [7] = Post-Treatment Week 14, 6 mg, ITT Population, MRA
# [8] = Post-Treatment Week 14, 6 mg, ITT Population-Excluding Duplicate Patients, MRA
# [9] = Week 1, 3 mg, ITT Population, MRA
# [10] = Week 1, 3 mg, ITT Population-Excluding Duplicate Patients, MRA
# [11] = Week 1, 6 mg, ITT Population, MRA
# [12] = Week 1, 6 mg, ITT Population-Excluding Duplicate Patients, MRA
# [13] = Week 2, 3 mg, ITT Population, MRA
# [14] = Week 2, 3 mg, ITT Population-Excluding Duplicate Patients, MRA
# [15] = Week 2, 6 mg, ITT Population, MRA
# [16] = Week 2, 6 mg, ITT Population-Excluding Duplicate Patients, MRA
# [17] = Week 3, 3 mg, ITT Population, MRA
# [18] = Week 3, 3 mg, ITT Population-Excluding Duplicate Patients, MRA
# [19] = Week 3, 6 mg, ITT Population, MRA
substance,measurement,setting,value
"Asn^1-Asp^2-Glu^3-Cys^4-Glu^5-Leu^6-Cys^7-Val^8-Asn^9-Val^10-Ala^11-Cys^12-Thr^13-Gly^14-Cys^15-Leu^16 (NDECELCVNVACTGCL; disulfide 4-12, 7-15) [Plecanatide, uroguanylin analogue, guanylate cyclase-C agonist; (C4:C12, C7:C15) bicycle peptide]","Change from Baseline in CSBMs, LS Mean (SE)","6 mg, overall average estimate across the 12-week treatment period, All Randomized (includes Duplicate Patients)",2.14 (0.129) CSBMs/week
same,"Change from Baseline in CSBMs, Mean (SD)","Active Combined, Post-Treatment Week 13, All Randomized (includes Duplicate Patients)",1.73 (2.552) CSBMs/week
same,"Change from Baseline in CSBMs, Mean (SD)","Active Combined, Post-Treatment Week 14, All Randomized (includes Duplicate Patients)",1.69 (2.591) CSBMs/week
same,"Change from Baseline in CSBMs, Mean (SD)","Active Combined, Week 1, All Randomized (includes Duplicate Patients)",1.73 (2.803) CSBMs/week
same,"Change from Baseline in CSBMs, Mean (SD)","Active Combined, Week 2, All Randomized (includes Duplicate Patients)",1.83 (3.037) CSBMs/week
same,"Change from Baseline in CSBMs, Mean (SD)","Active Combined, Week 3, All Randomized (includes Duplicate Patients)",1.89 (3.005) CSBMs/week
same,"Change from Baseline in CSBMs, Difference from Placebo",[1],0.43 CSBMs/week
same,"Change from Baseline in CSBMs, LS Mean (SE)",[1],1.94 (0.134) CSBMs/week
same,"Change from Baseline in CSBMs, Mean (SD)",[1],1.88 (2.733) CSBMs/week
same,"Change from Baseline in CSBMs, Difference from Placebo",[2],0.46 CSBMs/week
same,"Change from Baseline in CSBMs, LS Mean (SE)",[2],1.96 (0.135) CSBMs/week
same,"Change from Baseline in CSBMs, Mean (SD)",[2],1.90 (2.743) CSBMs/week
same,"Change from Baseline in CSBMs, Difference from Placebo",[3],0.20 CSBMs/week
same,"Change from Baseline in CSBMs, LS Mean (SE)",[3],1.70 (0.134) CSBMs/week
same,"Change from Baseline in CSBMs, Mean (SD)",[3],1.64 (2.393) CSBMs/week
same,"Change from Baseline in CSBMs, Difference from Placebo",[4],0.18 CSBMs/week
same,"Change from Baseline in CSBMs, LS Mean (SE)",[4],1.69 (0.133) CSBMs/week
same,"Change from Baseline in CSBMs, Mean (SD)",[4],1.62 (2.339) CSBMs/week
same,"Change from Baseline in CSBMs, Mean (SD)","Post-Treatment Week 13, Active Combined, ITT Population-Excluding Duplicate Patients, MRA",1.76 (2.547) CSBMs/week
same,"Change from Baseline in CSBMs, Mean (SD)","Post-Treatment Week 13, Active Combined, ITT Population, MRA",1.76 (2.567) CSBMs/week
same,"Change from Baseline in CSBMs, Difference from Placebo",[5],0.43 CSBMs/week
same,"Change from Baseline in CSBMs, LS Mean (SE)",[5],1.82 (0.136) CSBMs/week
same,"Change from Baseline in CSBMs, Mean (SD)",[5],1.78 (2.620) CSBMs/week
same,"Change from Baseline in CSBMs, Difference from Placebo",[6],0.43 CSBMs/week
same,"Change from Baseline in CSBMs, LS Mean (SE)",[6],1.83 (0.137) CSBMs/week
same,"Change from Baseline in CSBMs, Mean (SD)",[6],1.78 (2.628) CSBMs/week
same,"Change from Baseline in CSBMs, Difference from Placebo",[7],0.34 CSBMs/week
same,"Change from Baseline in CSBMs, LS Mean (SE)",[7],1.73 (0.137) CSBMs/week
same,"Change from Baseline in CSBMs, Mean (SD)",[7],1.67 (2.616) CSBMs/week
same,"Change from Baseline in CSBMs, Difference from Placebo",[8],0.31 CSBMs/week
same,"Change from Baseline in CSBMs, LS Mean (SE)",[8],1.71 (0.136) CSBMs/week
same,"Change from Baseline in CSBMs, Mean (SD)",[8],1.64 (2.536) CSBMs/week
same,"Change from Baseline in CSBMs, Mean (SD)","Post-Treatment Week 14, Active Combined, ITT Population-Excluding Duplicate Patients, MRA",1.71 (2.582) CSBMs/week
same,"Change from Baseline in CSBMs, Mean (SD)","Post-Treatment Week 14, Active Combined, ITT Population, MRA",1.72 (2.616) CSBMs/week
same,"Change from Baseline in CSBMs, Difference from Placebo",[9],0.88 CSBMs/week
same,"Change from Baseline in CSBMs, LS Mean (SE)",[9],1.72 (0.153) CSBMs/week
same,"Change from Baseline in CSBMs, Mean (SD)",[9],1.75 (2.732) CSBMs/week
same,"Change from Baseline in CSBMs, Difference from Placebo",[10],0.88 CSBMs/week
same,"Change from Baseline in CSBMs, LS Mean (SE)",[10],1.75 (0.155) CSBMs/week
same,"Change from Baseline in CSBMs, Mean (SD)",[10],1.78 (2.752) CSBMs/week
same,"Change from Baseline in CSBMs, Difference from Placebo",[11],0.88 CSBMs/week
same,"Change from Baseline in CSBMs, LS Mean (SE)",[11],1.71 (0.151) CSBMs/week
same,"Change from Baseline in CSBMs, Mean (SD)",[11],1.72 (2.897) CSBMs/week
same,"Change from Baseline in CSBMs, Difference from Placebo",[12],0.87 CSBMs/week
same,"Change from Baseline in CSBMs, LS Mean (SE)",[12],1.74 (0.153) CSBMs/week
same,"Change from Baseline in CSBMs, Mean (SD)",[12],1.74 (2.911) CSBMs/week
same,"Change from Baseline in CSBMs, Mean (SD)","Week 1, Active Combined, ITT Population-Excluding Duplicate Patients, MRA",1.76 (2.832) CSBMs/week
same,"Change from Baseline in CSBMs, Mean (SD)","Week 1, Active Combined, ITT Population, MRA",1.74 (2.815) CSBMs/week
same,"Change from Baseline in CSBMs, Difference from Placebo",[13],0.86 CSBMs/week
same,"Change from Baseline in CSBMs, LS Mean (SE)",[13],1.82 (0.153) CSBMs/week
same,"Change from Baseline in CSBMs, Mean (SD)",[13],1.81 (2.963) CSBMs/week
same,"Change from Baseline in CSBMs, Difference from Placebo",[14],0.85 CSBMs/week
same,"Change from Baseline in CSBMs, LS Mean (SE)",[14],1.84 (0.155) CSBMs/week
same,"Change from Baseline in CSBMs, Mean (SD)",[14],1.82 (2.986) CSBMs/week
same,"Change from Baseline in CSBMs, Difference from Placebo",[15],0.85 CSBMs/week
same,"Change from Baseline in CSBMs, LS Mean (SE)",[15],1.81 (0.152) CSBMs/week
same,"Change from Baseline in CSBMs, Mean (SD)",[15],1.84 (3.158) CSBMs/week
same,"Change from Baseline in CSBMs, Difference from Placebo",[16],0.85 CSBMs/week
same,"Change from Baseline in CSBMs, LS Mean (SE)",[16],1.84 (0.154) CSBMs/week
same,"Change from Baseline in CSBMs, Mean (SD)",[16],1.85 (3.171) CSBMs/week
same,"Change from Baseline in CSBMs, Mean (SD)","Week 2, Active Combined, ITT Population-Excluding Duplicate Patients, MRA",1.84 (3.079) CSBMs/week
same,"Change from Baseline in CSBMs, Mean (SD)","Week 2, Active Combined, ITT Population, MRA",1.82 (3.061) CSBMs/week
same,"Change from Baseline in CSBMs, Difference from Placebo",[17],0.74 CSBMs/week
same,"Change from Baseline in CSBMs, LS Mean (SE)",[17],1.94 (0.153) CSBMs/week
same,"Change from Baseline in CSBMs, Mean (SD)",[17],1.94 (3.117) CSBMs/week
same,"Change from Baseline in CSBMs, Difference from Placebo",[18],0.74 CSBMs/week
same,"Change from Baseline in CSBMs, LS Mean (SE)",[18],1.96 (0.156) CSBMs/week
same,"Change from Baseline in CSBMs, Mean (SD)",[18],1.95 (3.143) CSBMs/week
same,"Change from Baseline in CSBMs, Difference from Placebo",[19],0.61 CSBMs/week
same,"Change from Baseline in CSBMs, LS Mean (SE)",[19],1.81 (0.152) CSBMs/week
